Results taken from ChEMBL document CHEMBL1156341, “Synthesis of new artemisinin analogues from artemisinic acid modified at C-3 and C-13 and their antimalarial activity” (J Nat Prod, 2001).
Converted amounts (≈) assume the structure as drawn.

Key:
Plasmodium falciparum [1] = assay: Antimalarial activity against chloroquine-sensitive Plasmodium falciparum D6; format: functional, organism-based
Plasmodium falciparum [2] = assay: Antimalarial activity against chloroquine-resistant Plasmodium falciparum W2; format: functional, organism-based
[3] = Cytotoxicity against human vinblastine-resistant KBVIN cells in presence of vinblastine; format: functional, cell-based

Structure (SMILES) | IC50 (Plasmodium falciparum [1]) [ng/mL] | IC50 (Plasmodium falciparum [2]) [ng/mL] | IC50 [3] [ng/mL]
C[C@@H]1CC[C@H]2[C@@H](CC#N)C(=O)O[C@@H]3O[C@@]4(C)CC[C@@H]1[C@]32OO4 | 18.4 (≈ 0.0599 µM) | 8.4 (≈ 0.0273 µM) | –
C[C@@H]1CC[C@H]2[C@@H](C)C(=O)O[C@@H]3O[C@@]4(C)CC[C@@H]1[C@]32OO4 [ARTEMISININ] | – | 0.2 (≈ 0.000708 µM) | –
COC[C@H]1C(=O)O[C@@H]2O[C@@]3(C)CC[C@H]4[C@H](C)CC[C@@H]1[C@@]24OO3 | 75 (≈ 0.24 µM) | 59 (≈ 0.189 µM) | –
C[C@@H]1CC[C@H]2C(=C3CC3)C(=O)O[C@@H]3O[C@@]4(C)CC[C@@H]1[C@]32OO4 | 6.2 (≈ 0.0202 µM) | 4.3 (≈ 0.014 µM) | –
OC(c1cc(C(F)(F)F)nc2c(C(F)(F)F)cccc12)C1CCCCN1 (centres undefined) [MEFLOQUINE] | – | 3.6 (≈ 0.00952 µM) | –
C[C@@H]1CC[C@H]2[C@@H](CC[N+](=O)[O-])C(=O)O[C@@H]3O[C@@]4(C)CC[C@@H]1[C@]32OO4 | 0.68 (≈ 0.00199 µM) | 0.26 (≈ 0.000762 µM) | 5.1
C=C[C@H]1CN2CC[C@H]1C[C@H]2[C@H](O)c1ccnc2ccc(OC)cc12 [QUININE] | 19.6 (≈ 0.0604 µM) | 102 (≈ 0.314 µM) | –
CCS(=O)(=O)C[C@H]1C(=O)O[C@@H]2O[C@@]3(C)CC[C@H]4[C@H](C)CC[C@@H]1[C@@]24OO3 | > 500 | > 500 | –
CC(=O)O[C@@H]1C[C@H]2[C@H](C)CC[C@H]3[C@@H](C)C(=O)O[C@@H]4O[C@]1(C)OO[C@]423 | 11.1 (≈ 0.0326 µM) | 2.07 (≈ 0.00608 µM) | –
COC(=O)C[C@H]1C(=O)O[C@@H]2O[C@@]3(C)CC[C@H]4[C@H](C)CC[C@@H]1[C@@]24OO3 | 46 (≈ 0.135 µM) | 33 (≈ 0.097 µM) | –
